The source of these data is patent US9598424B2 (Takeda Pharmaceutical Company Limited, priority 2014, dated 2017).

Experiment [1] deals with T1, TBK1 (Homo sapiens, UniProt Q9UHD2).
T1 construct: host or cells: RA1-ISRE beta-lactamase reporter cells
T1 sequence (Q9UHD2 1-729): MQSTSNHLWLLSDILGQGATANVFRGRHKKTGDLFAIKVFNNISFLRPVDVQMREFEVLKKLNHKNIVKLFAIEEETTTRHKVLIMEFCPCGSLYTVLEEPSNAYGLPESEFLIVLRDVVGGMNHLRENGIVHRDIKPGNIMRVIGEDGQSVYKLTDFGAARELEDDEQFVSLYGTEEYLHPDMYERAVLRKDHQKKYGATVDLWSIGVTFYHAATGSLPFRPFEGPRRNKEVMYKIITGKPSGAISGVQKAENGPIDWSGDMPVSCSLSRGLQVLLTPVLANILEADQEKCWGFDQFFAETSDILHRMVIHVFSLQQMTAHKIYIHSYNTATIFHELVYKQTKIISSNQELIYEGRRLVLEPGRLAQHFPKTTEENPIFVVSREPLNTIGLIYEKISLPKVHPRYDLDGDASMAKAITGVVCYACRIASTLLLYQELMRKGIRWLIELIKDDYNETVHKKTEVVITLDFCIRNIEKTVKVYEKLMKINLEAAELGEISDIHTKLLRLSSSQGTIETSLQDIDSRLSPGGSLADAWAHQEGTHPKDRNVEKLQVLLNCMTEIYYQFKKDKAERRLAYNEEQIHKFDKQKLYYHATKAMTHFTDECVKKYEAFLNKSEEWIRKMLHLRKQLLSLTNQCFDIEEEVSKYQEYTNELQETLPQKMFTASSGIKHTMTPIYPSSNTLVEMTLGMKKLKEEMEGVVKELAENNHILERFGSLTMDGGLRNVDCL
As to the kind of experiment: Inhibition of TBK1 in Cells (TLR3 driven ISRE β-lactamase reporter assay). Type of experiment: cell-based. The following applies: poly IC-LMW stimulation 16 hrs; -log(EC50), EC50 molar; read-out: Inhibition of TBK1 in cells pEC50 (EC) (converted). In short, it runs like this:
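RA1-ISRE β-lactamase reporter cells (50,000/well) treated with 11-point 2.5-fold compound dilutions and stimulated with 0.15 mg/ml poly IC-LMW for 16 hrs. Reporter read by CCF4-AM FRET; EC50 from non-linear fit of percent inhibition, reported as pEC50 (molar).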
A general note: Reporter assays use an easily measured gene product as a stand-in for the process of interest.

Experiment [2] addresses T2, Full length human TBK1 (Homo sapiens, UniProt Q9UHD2).
T2 construct: Full length human TBK1 with an N-terminal His-tag; His-tag (N); made in house; host or cells: Sf9 insect cells (baculovirus, pFastBac1)
T2 sequence (Q9UHD2 1-729): T1 sequence (Q9UHD2 1-729)
The experiment can be described thus: Inhibition of TBK1 Enzyme (Caliper microfluidic assay). To be noted: 25 μM ATP, 60 min at RT; -log(IC50), IC50 molar; read-out: TBK1 Inhibition (pIC50) (converted). The class given is biochemical. In short, it runs like this: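 Enzyme: His-tagged full-length TBK1 expressed in Sf9. Reaction 60 min at RT in 20 mM Hepes pH 7.4, 10 mM MgCl2, 1 mM EDTA, 0.01% Brij-L23, 1 mM DTT, with 5FAM-peptide (added at 1 μM) and TBK1/ATP mix (added at 3 nM/25 μM), then EDTA-quenched. Conversion measured by microfluidic separation; 11-point 2.5-fold series fit to pIC50.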

As to `O=C(NC1CCCC1=O)c1nc(-c2ccc3nc(NC(=O)C4CC4)cn3c2)cs1` (stereo not drawn) [Example 91, 4-(2-(cyclopropanecarboxamido)imidazo[1,2-a]pyridin-6-yl)-N-(2-oxocyclopentyl)thiazole-2-carboxamide], the EC50 in experiment [1] was 5130 nM. In addition, in experiment [2], the IC50 is 200 nM.

Consider `CC(=O)N1CCC(NC(=O)c2cc(-c3ccc4nc(NC(=O)C5CC5)cn4c3)cs2)C1` (stereo not drawn) [Example 79, N-(1-acetylpyrrolidin-3-yl)-4-(2-(cyclopropanecarboxamido)imidazo[1,2-a]pyridin-6-yl)thiophene-2-carboxamide], for which, in experiment [1], the EC50 was 22900 nM. Moreover, the IC50 in experiment [2] was 79.4 nM.

Take `C[C@@H](NC(=O)c1nc(-c2ccc3nc(NC(=O)C4CC4)cn3c2)c[nH]1)C(F)(F)F` [Example 9, 4-{2-cyclopropaneamidoimidazo[1,2-a]pyridin-6-yl}-N-[(2R)-1,1,1-trifluoropropan-2-yl]-1H-imidazole-2-carboxamide]: the EC50 in experiment [1] was 229 nM. In addition, in experiment [2], the IC50 was 10 nM.

With `O=C(N[C@H]1CCCOC1)c1cc(-c2ccc3nc(NC(=O)C4CC4)cn3c2)cs1` [Example 68, (S)-4-(2-(cyclopropanecarboxamido)imidazo[1,2-a]pyridin-6-yl)-N-(tetrahydro-2H-pyran-3-yl)thiophene-2-carboxamide], the EC50 in experiment [1] was 1020 nM. For the same molecule, in experiment [2], the IC50 is 10 nM.

On to `O=C(Nc1cn2cc(-c3csc(C(=O)N4CCC(F)(F)C4)c3)ccc2n1)C1CC1` [Example 74, N-(6-(5-(3,3-difluoropyrrolidine-1-carbonyl)thiophen-3-yl)imidazo[1,2-a]pyridin-2-yl)cyclopropanecarboxamide], for which the EC50 in experiment [1] is 1350 nM. In addition, the IC50 in experiment [2] is 31.6 nM.

`O=C(NCCC(F)(F)F)c1nc(-c2ccc3nc(NC(=O)C4CC4)cn3c2)cs1` [Example 92, 4-(2-(cyclopropanecarboxamido)imidazo[1,2-a]pyridin-6-yl)-N-(3,3,3-trifluoropropyl)thiazole-2-carboxamide]: in experiment [1], the EC50 was 1120 nM. In addition, the IC50 in experiment [2] is 50.1 nM.

With `O=C(N[C@@H]1CCOC1)c1cc(-c2ccc3nc(NC(=O)C4CC4)cn3c2)cs1` [Example 71, (R)-4-(2-(cyclopropanecarboxamido)imidazo[1,2-a]pyridin-6-yl)-N-(tetrahydrofuran-3-yl)thiophene-2-carboxamide], the EC50 in experiment [1] was 2400 nM. In addition, the IC50 in experiment [2] was 20 nM.

In the case of `O=C(NC1(C(F)(F)F)CC1)c1cc(-c2ccc3nc(NC(=O)C4CC4)cn3c2)cs1` [Example 118, 4-(2-(cyclopropanecarboxamido)imidazo[1,2-a]pyridin-6-yl)-N-(1-(trifluoromethyl)cyclopropyl)thiophene-2-carboxamide], the EC50 in experiment [1] is 676 nM. Moreover, the IC50 in experiment [2] is 31.6 nM.

On to `O=C(NC1CCCOC1)c1cc(-c2ccc3nc(NC(=O)C4CC4)cn3c2)cs1` (stereo not drawn) [Example 67, 4-(2-(cyclopropanecarboxamido)imidazo[1,2-a]pyridin-6-yl)-N-(tetrahydro-2H-pyran-3-yl)thiophene-2-carboxamide], for which the EC50 in experiment [1] is 1170 nM. Moreover, in experiment [2], the IC50 is 63.1 nM.

For the molecule `N[C@@H]1CCCC(F)(F)[C@@H]1NC(=O)c1cc(-c2ccc3nc(NC(=O)C4CC4)cn3c2)cs1` [Example 125, N-((1R,6R)-6-amino-2,2-difluorocyclohexyl)-4-(2-(cyclopropanecarboxamido)imidazo[1,2-a]pyridin-6-yl)thiophene-2-carboxamide], the EC50 in experiment [1] is 19.1 nM. Moreover, the IC50 in experiment [2] was 6.31 nM.

For the molecule `O=C(NCC(O)C(F)(F)F)c1nc(-c2ccc3nc(NC(=O)C4CC4)cn3c2)cs1` (stereo not drawn) [Example 115, 4-(2-(cyclopropanecarboxamido)imidazo[1,2-a]pyridin-6-yl)-N-(3,3,3-trifluoro-2-hydroxypropyl)thiazole-2-carboxamide], the EC50 in experiment [1] was 1510 nM. Also, the IC50 in experiment [2] was 79.4 nM.

With `O=C(NCC(F)F)c1cc(-c2ccc3nc(NC(=O)C4CC4)cn3c2)n[nH]1` [Example 27, 5-(2-(cyclopropanecarboxamido)imidazo[1,2-a]pyridin-6-yl)-N-(2,2-difluoroethyl)-1H-pyrazole-3-carboxamide], the EC50 in experiment [1] is 3720 nM. In addition, the IC50 in experiment [2] is 31.6 nM.

`O=C(NCC(F)F)c1ccn(-c2cn3cc(NC(=O)C4CC4)nc3cn2)n1` [Example 38, 1-(2-(cyclopropanecarboxamido)imidazo[1,2-a]pyrazin-6-yl)-N-(2,2-difluoroethyl)-1H-pyrazole-3-carboxamide]: the EC50 in experiment [1] is 1170 nM. In addition, the IC50 in experiment [2] is 25.1 nM.

On to `O=C(N[C@H]1CCCC[C@H]1O)c1cc(-c2ccc3nc(NC(=O)C4CC4)cn3c2)cs1` [Example 76, 4-(2-(cyclopropanecarboxamido)imidazo[1,2-a]pyridin-6-yl)-N-((1S,2R)-2-hydroxycyclohexyl)thiophene-2-carboxamide], for which the EC50 in experiment [1] is 912 nM. The IC50 in experiment [2] was 15.8 nM.

Take `CC(F)(F)CNC(=O)c1nc(-c2ccc3nc(NC(=O)C4CC4)cn3c2)c[nH]1` [Example 11, 4-{2-cyclopropaneamidoimidazo[1,2-a]pyridin-6-yl}-N-(2,2-difluoropropyl)-1H-imidazole-2-carboxamide]: the EC50 in experiment [1] is 813 nM. Further, the IC50 in experiment [2] was 63.1 nM.

As to `CN(CC(F)(F)F)C(=O)c1cc(-c2ccc3nc(NC(=O)C4CC4)cn3c2)cs1` [Example 28, 4-(2-(cyclopropanecarboxamido)imidazo[1,2-a]pyridin-6-yl)-N-methyl-N-(2,2,2-trifluoroethyl)thiophene-2-carboxamide], the EC50 in experiment [1] was 676 nM. For the same molecule, the IC50 in experiment [2] is 12.6 nM.

In the case of `O=C(N[C@H]1CCOC1)c1cc(-c2ccc3nc(NC(=O)C4CC4)cn3c2)cs1` [Example 72, (S)-4-(2-(cyclopropanecarboxamido)imidazo[1,2-a]pyridin-6-yl)-N-(tetrahydrofuran-3-yl)thiophene-2-carboxamide], the EC50 in experiment [1] is 1200 nM. Moreover, the IC50 in experiment [2] is 12.6 nM.

In the case of `O=C(Nc1cn2cc(-c3csc(C(=O)N4CC(CO)C4)n3)ccc2n1)C1CC1` [Example 124, N-(6-(2-(3-(hydroxymethyl)azetidine-1-carbonyl)thiazol-4-yl)imidazo[1,2-a]pyridin-2-yl)cyclopropanecarboxamide], the EC50 in experiment [1] is 2140 nM. Besides, the IC50 in experiment [2] is 251 nM.

`O=C(Nc1cn2cc(-c3csc(C(=O)N(CCO)CC(F)(F)F)c3)ccc2n1)C1CC1` [Example 120, 4-(2-(cyclopropanecarboxamido)imidazo[1,2-a]pyridin-6-yl)-N-(2-hydroxyethyl)-N-(2,2,2-trifluoroethyl)thiophene-2-carboxamide]: the EC50 in experiment [1] was 851 nM. In addition, in experiment [2], the IC50 is 158 nM.

Turning to `CC(C)(NC(=O)c1cc(-c2ccc3nc(NC(=O)C4CC4)cn3c2)cs1)C(F)(F)F` [Example 56, 4-(2-(cyclopropanecarboxamido)imidazo[1,2-a]pyridin-6-yl)-N-(1,1,1-trifluoro-2-methylpropan-2-yl)thiophene-2-carboxamide], the EC50 in experiment [1] is 631 nM. The IC50 in experiment [2] was 25.1 nM.

Turning to `O=C(NCC(F)(F)F)c1cc(-c2ccc3nc(NC(=O)C4CC4)cn3c2)cs1` [Example 32, 4-(2-(cyclopropanecarboxamido)imidazo[1,2-a]pyridin-6-yl)-N-(2,2,2-trifluoroethyl)thiophene-2-carboxamide], the EC50 in experiment [1] is 120 nM. The IC50 in experiment [2] was 5.01 nM.

As to `O=C(NCCC(F)(F)F)c1cc(-c2ccc3nc(NC(=O)C4CC4)cn3c2)cs1` [Example 78, 4-(2-(cyclopropanecarboxamido)imidazo[1,2-a]pyridin-6-yl)-N-(3,3,3-trifluoropropyl)thiophene-2-carboxamide], the EC50 in experiment [1] was 479 nM. Moreover, the IC50 in experiment [2] is 10 nM.

For `O=C(NCC(F)(F)F)c1cc(-c2ccc3nc(NC(=O)C4CC4)cn3c2)[nH]n1` [Example 51, 5-(2-(cyclopropanecarboxamido)imidazo[1,2-a]pyridin-6-yl)-N-(2,2,2-trifluoroethyl)-1H-pyrazole-3-carboxamide], in experiment [1], the EC50 was 490 nM. Moreover, the IC50 in experiment [2] was 7.94 nM.

As to `O=C(Nc1cn2cc(-c3csc(C(=O)N4CCOCC4)c3)ccc2n1)C1CC1` [Example 54, N-{6-[5-(morpholine-4-carbonyl)thiophen-3-yl]imidazo[1,2-a]pyridin-2-yl}cyclopropanecarboxamide], the EC50 in experiment [1] is 20000 nM. Besides, in experiment [2], the IC50 is 251 nM.
